Results on ten compounds are retold here after ChEMBL document CHEMBL3822434 (Bioorg Med Chem, 2016).

Series [1] in a line: Solubility in 50 mM phosphate buffer at pH 6.5 irradiated ultrasonically for 10 mins followed by incubation for 24 hrs by HPLC-UV analysis. The series is classed as physicochemical.
Series [2] is described as follows: Intrinsic clearance in human liver microsomes at 1 uM after 30 mins in presence of NADPH by LC-MS/MS analysis. The series is classed as ADME. The conditions noted are these: read-out: CLH.
The nature of series [3]: Solubility in fasted state simulated intestinal fluid irradiated ultrasonically for 10 mins followed by incubation for 24 hrs by HPLC-UV analysis. The series is classed as ADME.
The test system of series [4] is Liver cytosol. The series is described as follows: Drug metabolism in human liver cytosol at 1 uM assessed as N-(2-Methoxy-4-((3-(4-methylpiperazin-1-yl)propyl)carbamoyl)phenyl)-4-oxo-3,4-dihydrothieno[3,2-d]pyrimidine-7-carboxamide formation after 30 mins in presence of NADPH by LC-MS/MS analysis. The format is ADME. The note with it: 0.5 h.
A short description of series [5]: Drug metabolism in mouse liver cytosol at 1 uM assessed as N-(2-Methoxy-4-((3-(4-methylpiperazin-1-yl)propyl)carbamoyl)phenyl)-4-oxo-3,4-dihydrothieno[3,2-d]pyrimidine-7-carboxamide formation after 30 mins in presence of NADPH by LC-MS/MS analysis. The series is classed as ADME. The note with it: 0.5 h.
Series [6] is described as follows: Intrinsic clearance in mouse liver microsomes at 1 uM after 30 mins in presence of NADPH by LC-MS/MS analysis. The format is ADME. The conditions noted are these: read-out: CLH.
The target in series [7] is T1, Mitogen-activated protein kinase kinase kinase 7 (Homo sapiens, UniProt O43318).
T1 sequence (O43318 whole entry): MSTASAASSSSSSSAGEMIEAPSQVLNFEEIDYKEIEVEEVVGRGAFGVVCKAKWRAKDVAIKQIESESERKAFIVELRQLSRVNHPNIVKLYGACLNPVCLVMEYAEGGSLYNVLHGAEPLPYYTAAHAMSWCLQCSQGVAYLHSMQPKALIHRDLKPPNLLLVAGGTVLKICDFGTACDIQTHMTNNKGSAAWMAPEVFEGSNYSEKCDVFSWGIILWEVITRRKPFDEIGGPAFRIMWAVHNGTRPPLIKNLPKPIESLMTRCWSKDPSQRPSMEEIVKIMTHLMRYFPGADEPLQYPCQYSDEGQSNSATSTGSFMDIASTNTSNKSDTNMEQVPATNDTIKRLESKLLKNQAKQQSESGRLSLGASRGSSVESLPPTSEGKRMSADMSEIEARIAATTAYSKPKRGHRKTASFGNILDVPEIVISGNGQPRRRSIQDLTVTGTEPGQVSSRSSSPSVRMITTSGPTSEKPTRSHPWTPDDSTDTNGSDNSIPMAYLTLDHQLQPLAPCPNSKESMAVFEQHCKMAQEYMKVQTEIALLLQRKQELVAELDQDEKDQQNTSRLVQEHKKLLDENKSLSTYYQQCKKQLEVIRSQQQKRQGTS
The series is described as follows: Inhibition of recombinant TAK1 (unknown origin).

Series [8] has as its target T1, Mitogen-activated protein kinase kinase kinase 7. In words: Inhibition of recombinant FLAG-tagged TAK1 kinase domain (unknown origin) expressed in baculovirus expression system coexpressing TAB using biotin-labeled MKK6kd substrate incubated for 1 hr by AlphaScreen assay. Background: Bead proximity is the source of the signal in Alpha formats.
Series [9] in a line: Drug level in mouse liver cytosol treated with N-(2-Methoxy-4-((3-(4-methylpiperazin-1-yl)propyl)carbamoyl)phenyl)thieno[3,2-d]pyrimidine-7-carboxamide after 30 mins in presence of NADPH by LC-MS/MS analysis. The series is classed as ADME, tissue-based. The note with it: 0.5 h.
Series [10] has as its system Liver cytosol. The series is described as follows: Drug level in human liver cytosol treated with N-(2-Methoxy-4-((3-(4-methylpiperazin-1-yl)propyl)carbamoyl)phenyl)thieno[3,2-d]pyrimidine-7-carboxamide after 30 mins in presence of NADPH by LC-MS/MS analysis. The series is classed as ADME, tissue-based. The conditions noted are these: 0.5 h.
A short description of series [11]: Apparent permeability in human Caco2 cells. The format is ADME, cell-based. The note with it: Caco-2.
Series [12] concerns the target T1, Mitogen-activated protein kinase kinase kinase 7. The series is described as follows: Inhibition of human recombinant TAK1 fused with TAB1 using MKK6 as substrate in presence of gamma-[33P]ATP.
Series [13] has the same target. The series is described as follows: Inhibition of TAK1 (unknown origin).

Molecules are shown by their SMILES. pIC50: −log10 of the molar value. In brackets after ≈: the same amount, converted by molar mass. Some results are limits rather than exact numbers.

In general, solubility refers to how much of the substance goes into solution per volume. Lower therefore signals little dissolved substance. Take `COc1cc(N2CCN(C)CC2)ccc1NC(=O)c1csc2cncnc12`: the values for the solubility at 24 h in series [1] and in [3] were 0.353 mg/mL (≈ 921 µM) and 0.351 mg/mL (≈ 915 µM), respectively. Also, the microsomal CLint at 1 µM in series [2] was 11 µL/min/mg.
In the case of `COc1cc(C(=O)N2CCN(C)CC2)ccc1NC(=O)c1csc2cncnc12`, the solubility at 24 h in series [1] is 0.293 mg/mL (≈ 712 µM); in [3] it was 0.312 mg/mL (≈ 758 µM). The microsomal CLint at 1 µM in [2] was 26 µL/min/mg.
`COc1cc(C(=O)NCCCN2CCN(C)CC2)ccc1NC(=O)c1csc2cncnc12`: the solubility at 24 h is 0.377 mg/mL (≈ 805 µM) in series [1] and 0.42 mg/mL (≈ 896 µM) in [3]. The Drug metabolism entry in series [4] and in [5] was “metabolite_detected” throughout. Besides, the microsomal CLint at 1 µM in [2] stood at 21 µL/min/mg; in [6] it was 80 µL/min/mg.
By pIC50 is commonly meant the IC50 on a negative log10 scale, so that one unit is a factor of ten. Consider `Cc1cc(NC(=O)Nc2cc(C(C)(C)C)nn2-c2cccc(C#N)c2)ccc1Oc1ccncc1`, for which the pIC50 in series [7] is 6.81.
`COc1cc2ncccc2cc1NC(=O)c1csc2cncnc12`: the solubility at 24 h in [1] and in series [3] was below 0.003 mg/mL each time.
Take `CCc1cc(Nc2ncc(F)c(-c3cnc4cccnn34)n2)cc(OCCN2CCC(O)CC2)c1`: the pIC50 in series [8] was 8.10.
For `COc1cc(C(=O)NCCCN2CCN(C)CC2)ccc1NC(=O)c1csc2c(=O)[nH]cnc12`, the Drug metabolism result in series [9] and in series [10] was “metabolite_detected” each time.
Broadly, the Papp is a coefficient for how fast a substance crosses the barrier. For `CC(C)Oc1c(NC(=O)c2csc3c(=O)[nH]cnc23)cccc1C(=O)N1CCN(C)CC1`, in [11], the Papp is below 10 nm/s.
Consider `C[C@H]1OC2C3=C(C(=O)[C@@H]4O[C@@H]4[C@H]3O)C1[C@@H]1[C@@H](C)OC=C3[C@H](O)[C@H]4O[C@H]4C(=O)[C@@]321` (stereo partly specified), for which the pIC50 in series [12] was 4.70.
`COCCN1CCN(Cc2ccc(-c3cc(NC(N)=O)c(C(N)=O)s3)cc2)CC1`: the pIC50 in [13] was 7.30.
